# From publication PMC6196238, “Novobiocin, a Newly Found TRPV1 Inhibitor, Attenuates the Expression of TRPV1 in Rat Intestine and Intestinal Epithelial Cell Line IEC-6” (Frontiers in Pharmacology, 2018)
# Columns and labels:
# IEC-6/TRPV1+ cells [1] = assay: CAP accumulation assay; assay type: cell-based, rat; conditions: for accumulation of CAP after inhibitor added at 60 min: CAP alone 60 min, then SB-705498 or NOVO (5 and 10 μM), at 75 min, Figure 3E
# Description: The transfected cells were grown to 80% confluence in 12-well plates. […] SB-705498, RR or NOVO was then added to the medium for another 15, 30, and 60 min. […] After incubation, the medium was removed, and cell layers were washed three times with ice-cold PBS and then extracted with Membrane Protein Extraction Kit (Thermo Fisher Scientific Inc, Rockford, IL, United States), according to the manufacturer’s protocol. The cytosolic protein extracts were stored at -80°C until LC-MS/MS analysis.
# The plasma samples and protein sample with 100 μL were extracted with 400 μL of methanol involving IS (verapamil 50 ng⋅mL^-1) by vortex-mix for 1 min, ultrasonic extraction for 1 h, and then centrifugation for 30 min at 15000 g. The supernatant was transferred into a borosilicate glass and 2 μL was subjected to LC-MS/MS analysis.
# The LC-MS/MS system consisted of Agilent 6460 Triple Quadrupole LC/MS systems via an ESI interface. The samples were separated on an Agilent ZORBAX SB-C18 column (3.5 μm, 2.1 mm × 150 mm) and the column temperature was maintained at 30°C. The mobile phase consisted of acetonitrile and water contains 0.1% formic acid (70:30, v/v). The flow rate was 0.2 mL⋅min^-1. The ion source was an electrospray ionization interface in the positive mode. […] Other parameters were as follows: spray voltage, 4.0 kV; capillary temperature, 350°C; gas flow, 10 L⋅min^-1.
# IEC-6/TRPV1- cells [2] = assay: MTT cell viability assay
# Description: (§1) The rat intestinal epithelial cell line IEC-6, purchased from Kunming Institute of Zoology. CAS, was cultured in Dulbecco’s Modified Eagle’s Medium (DMEM) (Gibco, Grand Island, NY, United States) supplemented with 10% fetal bovine serum (FBS; Gibco) at 37°C in a humidified atmosphere of 5% CO2.
# (§2) The plasmid pENTER containing the TRPV1 coding sequence NM_080704 was used as template in a PCR with the following primers: 5′-[…]-3′ (forward) and 5′-[…] (reverse). And synthetic small interfering RNA (siRNA) specific for rat TRPV1 (TRPV1-siRNA) was purchased from Vigene Bioscience (Rockville, MD, United States) with the following sequences: 5′-[…]-3′ (forward) and 5′-[…]-3′ (reverse) for TRPV1-siRNA. The transfecting process was conducted by using the lipofectamin® 3000 transfection reagent (Invitrogen^TM, Carlsbad, CA, United States), according to the manufacturer’s protocol.
# (§3) The transfected cells were plated in 96-well plates. […] Optical density at 490 nm was used to evaluate cell viability in 96-well plates.
# IEC-6/TRPV1+ cells [3] = assay: MTT cell viability assay; conditions: for Cell Survival: IEC-6/TRPV1+
# Description: as §1, §2, §3
# IEC-6/TRPV1+ cells [4] = assay: LDH release assay (cell membrane integrity); conditions: for LDH release: IEC-6/TRPV1+; for LDH release compared with the control: NOVO 2.5, 5, 10 μM, CAP 25 μM, RR 10 μM, SB-705498 0.1 μM, 12 and 24 h
# Description: (§4) The transfected cells were plated in 12-well plates. […] The cells were centrifuged at 1000 g for 5 min. Next, 50 μL of supernatants were aspirated and the rest of supernatants were discarded. The cells were washed twice with deionized water and then lysed by ultrasonic wave cracker. And then cell lysate and supernatants were analyzed by using LDH Release Assay Kit, according to the manufacturer’s instructions.
# IEC-6/TRPV1- cells [5] = assay: LDH release assay (cell membrane integrity)
# Description: as §4
# IEC-6/TRPV1- cells [6] = assay: CAP accumulation assay; assay type: cell-based, rat; conditions: 2.5-10 μM NOVO, 10 μM RR, 0.1 μM SB-705498, Figure 3D
# Description: The transfected cells were grown to 80% confluence in 12-well plates. The experiment was divided into three parts: […] SB-705498, RR or NOVO was then added to the medium for another 15, 30, and 60 min. […] After incubation, the medium was removed, and cell layers were washed three times with ice-cold PBS and then extracted with Membrane Protein Extraction Kit (Thermo Fisher Scientific Inc, Rockford, IL, United States), according to the manufacturer’s protocol. The cytosolic protein extracts were stored at -80°C until LC-MS/MS analysis. The plasma samples and protein sample with 100 μL were extracted with 400 μL of methanol involving IS (verapamil 50 ng⋅mL^-1) by vortex-mix for 1 min, ultrasonic extraction for 1 h, and then centrifugation for 30 min at 15000 g. The supernatant was transferred into a borosilicate glass and 2 μL was subjected to LC-MS/MS analysis. The LC-MS/MS system consisted of Agilent 6460 Triple Quadrupole LC/MS systems via an ESI interface. The samples were separated on an Agilent ZORBAX SB-C18 column (3.5 μm, 2.1 mm × 150 mm) and the column temperature was maintained at 30°C. The mobile phase consisted of acetonitrile and water contains 0.1% formic acid (70:30, v/v). The flow rate was 0.2 mL⋅min^-1. The ion source was an electrospray ionization interface in the positive mode. […] Other parameters were as follows: spray voltage, 4.0 kV; capillary temperature, 350°C; gas flow, 10 L⋅min^-1.
structure (smiles),measurement,setting,value
"CO[C@@H]1[C@@H](OC(N)=O)[C@@H](O)[C@H](Oc2ccc3c(O)c(NC(=O)c4ccc(O)c(CC=C(C)C)c4)c(=O)oc3c2C)OC1(C)C [NOVO, novobiocin]",accumulation of CAP after inhibitor added at 60 min,IEC-6/TRPV1+ cells [1],decreased immediately
same,"accumulation of CAP, co-incubation","IEC-6/TRPV1+ cells [1]; CAP in combination with 2.5-10 μM NOVO, vs control, Figure 3C",strong inhibition
same,accumulation of CAP in cells after 24 h pre-treatment,"IEC-6/TRPV1+ cells [1]; NOVO 2.5-10 μM 24 h prior to 25 μM CAP for 60 min, Figure 3B",positive correlation with a decrease in the accumulation of CAP
same,Cell Survival,"IEC-6/TRPV1- cells [2]; 1.25 μM, incubation 12 h",1.261 ± 0.512
same,Cell Survival,"IEC-6/TRPV1- cells [2]; 1.25 μM, incubation 24 h",1.192 ± 0.099
same,Cell Survival,"IEC-6/TRPV1- cells [2]; 2.5 μM, incubation 12 h",1.063 ± 0.361
same,Cell Survival,"IEC-6/TRPV1- cells [2]; 2.5 μM, incubation 24 h",1.113 ± 0.177
same,Cell Survival,"IEC-6/TRPV1- cells [2]; 5 μM, incubation 12 h",1.128 ± 0.274
same,Cell Survival,"IEC-6/TRPV1- cells [2]; 5 μM, incubation 24 h",0.952 ± 0.134
same,Cell Survival,"IEC-6/TRPV1- cells [2]; 10 μM, incubation 12 h",1.101 ± 0.101
same,Cell Survival,"IEC-6/TRPV1- cells [2]; 10 μM, incubation 24 h",0.861 ± 0.088
same,Cell Survival,"IEC-6/TRPV1- cells [2]; 20 μM, incubation 12 h",1.011 ± 0.194
same,Cell Survival,"IEC-6/TRPV1- cells [2]; 20 μM, incubation 24 h",0.749 ± 0.138
same,Cell Survival,"IEC-6/TRPV1- cells [2]; 40 μM, incubation 12 h",1.051 ± 0.214
same,Cell Survival,"IEC-6/TRPV1- cells [2]; 40 μM, incubation 24 h",0.647 ± 0.015
same,Cell Survival,"IEC-6/TRPV1- cells [2]; 50 μM, incubation 12 h",1.123 ± 0.293
same,Cell Survival,"IEC-6/TRPV1- cells [2]; 50 μM, incubation 24 h",0.591 ± 0.261
same,Cell Survival,"IEC-6/TRPV1+ cells [3]; 1.25 μM, incubation 12 h",1.208 ± 0.172
same,Cell Survival,"IEC-6/TRPV1+ cells [3]; 1.25 μM, incubation 24 h",1.353 ± 0.192
same,Cell Survival,"IEC-6/TRPV1+ cells [3]; 2.5 μM, incubation 12 h",1.139 ± 0.157
same,Cell Survival,"IEC-6/TRPV1+ cells [3]; 2.5 μM, incubation 24 h",1.326 ± 0.252
same,Cell Survival,"IEC-6/TRPV1+ cells [3]; 5 μM, incubation 12 h",1.118 ± 0.201
same,Cell Survival,"IEC-6/TRPV1+ cells [3]; 5 μM, incubation 24 h",1.282 ± 0.203
same,Cell Survival,"IEC-6/TRPV1+ cells [3]; 10 μM, incubation 12 h",1.156 ± 0.135
same,Cell Survival,"IEC-6/TRPV1+ cells [3]; 10 μM, incubation 24 h",0.954 ± 0.012
same,Cell Survival,"IEC-6/TRPV1+ cells [3]; 20 μM, incubation 12 h",1.113 ± 0.102
same,Cell Survival,"IEC-6/TRPV1+ cells [3]; 20 μM, incubation 24 h",0.744 ± 0.232
same,Cell Survival,"IEC-6/TRPV1+ cells [3]; 40 μM, incubation 12 h",1.018 ± 0.091
same,Cell Survival,"IEC-6/TRPV1+ cells [3]; 40 μM, incubation 24 h",0.752 ± 0.291
same,Cell Survival,"IEC-6/TRPV1+ cells [3]; 50 μM, incubation 12 h",1.065 ± 0.125
same,Cell Survival,"IEC-6/TRPV1+ cells [3]; 50 μM, incubation 24 h",0.668 ± 0.124
same,concentration up to which more than 80% of the cells were viable,"IEC-6/TRPV1+ cells [3]; both IEC-6/TRPV1+ and IEC-6/TRPV1-, incubated 24 h",10 µM
same,LDH release,"IEC-6/TRPV1+ cells [4]; 1 μM, 12 h",0.415 ± 0.169 gprot⋅mL ^-1
same,LDH release,"IEC-6/TRPV1+ cells [4]; 1 μM, 24 h",0.353 ± 0.026 gprot⋅mL ^-1
same,LDH release,"IEC-6/TRPV1+ cells [4]; 5 μM, 12 h",0.356 ± 0.090 gprot⋅mL ^-1
same,LDH release,"IEC-6/TRPV1+ cells [4]; 5 μM, 24 h",0.300 ± 0.052 gprot⋅mL ^-1
same,LDH release,"IEC-6/TRPV1+ cells [4]; 10 μM, 12 h",0.337 ± 0.005 gprot⋅mL ^-1
same,LDH release,"IEC-6/TRPV1+ cells [4]; 10 μM, 24 h",0.299 ± 0.072 gprot⋅mL ^-1
same,LDH release compared with the control,IEC-6/TRPV1+ cells [4],not any significant difference
same,LDH release,"IEC-6/TRPV1- cells [5]; 1 μM, 12 h",0.638 ± 0.131 gprot⋅mL ^-1
same,LDH release,"IEC-6/TRPV1- cells [5]; 1 μM, 24 h",0.433 ± 0.127 gprot⋅mL ^-1
same,LDH release,"IEC-6/TRPV1- cells [5]; 5 μM, 12 h",0.651 ± 0.120 gprot⋅mL ^-1
same,LDH release,"IEC-6/TRPV1- cells [5]; 5 μM, 24 h",0.554 ± 0.103 gprot⋅mL ^-1
same,LDH release,"IEC-6/TRPV1- cells [5]; 10 μM, 12 h",0.535 ± 0.119 gprot⋅mL ^-1
same,LDH release,"IEC-6/TRPV1- cells [5]; 10 μM, 24 h",0.502 ± 0.106 gprot⋅mL ^-1
same,"accumulation of CAP, co-incubation",IEC-6/TRPV1- cells [6],did not change
O=C(Nc1ccccc1Br)N[C@@H]1CCN(c2ccc(C(F)(F)F)cn2)C1 [SB-705498],accumulation of CAP after inhibitor added at 60 min,IEC-6/TRPV1+ cells [1],decreased immediately
same,Cell Survival,"IEC-6/TRPV1- cells [2]; 0.001 μM, incubation 12 h",1.261 ± 0.268
same,Cell Survival,"IEC-6/TRPV1- cells [2]; 0.001 μM, incubation 24 h",0.999 ± 0.082
same,Cell Survival,"IEC-6/TRPV1- cells [2]; 0.01 μM, incubation 12 h",1.158 ± 0.144
same,Cell Survival,"IEC-6/TRPV1- cells [2]; 0.01 μM, incubation 24 h",0.968 ± 0.218
same,Cell Survival,"IEC-6/TRPV1- cells [2]; 0.1 μM, incubation 12 h",1.169 ± 0.333
same,Cell Survival,"IEC-6/TRPV1- cells [2]; 0.1 μM, incubation 24 h",0.962 ± 0.184
same,Cell Survival,"IEC-6/TRPV1- cells [2]; 1 μM, incubation 12 h",1.001 ± 0.229
same,Cell Survival,"IEC-6/TRPV1- cells [2]; 1 μM, incubation 24 h",0.933 ± 0.077
same,Cell Survival,"IEC-6/TRPV1- cells [2]; 5 μM, incubation 12 h",0.931 ± 0.296
same,Cell Survival,"IEC-6/TRPV1- cells [2]; 5 μM, incubation 24 h",0.907 ± 0.039
same,Cell Survival,"IEC-6/TRPV1+ cells [3]; 0.001 μM, incubation 12 h",1.114 ± 0.190
same,Cell Survival,"IEC-6/TRPV1+ cells [3]; 0.001 μM, incubation 24 h",1.018 ± 0.061
same,Cell Survival,"IEC-6/TRPV1+ cells [3]; 0.01 μM, incubation 12 h",1.101 ± 0.236
same,Cell Survival,"IEC-6/TRPV1+ cells [3]; 0.01 μM, incubation 24 h",1.129 ± 0.185
same,Cell Survival,"IEC-6/TRPV1+ cells [3]; 0.1 μM, incubation 12 h",1.274 ± 0.223
same,Cell Survival,"IEC-6/TRPV1+ cells [3]; 0.1 μM, incubation 24 h",1.118 ± 0.139
same,Cell Survival,"IEC-6/TRPV1+ cells [3]; 1 μM, incubation 12 h",1.203 ± 0.139
same,Cell Survival,"IEC-6/TRPV1+ cells [3]; 1 μM, incubation 24 h",1.052 ± 0.100
same,Cell Survival,"IEC-6/TRPV1+ cells [3]; 5 μM, incubation 12 h",1.276 ± 0.156
same,Cell Survival,"IEC-6/TRPV1+ cells [3]; 5 μM, incubation 24 h",0.976 ± 0.098
same,LDH release,"IEC-6/TRPV1+ cells [4]; 0.1 μM, 12 h",0.469 ± 0.124 gprot⋅mL ^-1
same,LDH release,"IEC-6/TRPV1+ cells [4]; 0.1 μM, 24 h",0.423 ± 0.149 gprot⋅mL ^-1
same,LDH release compared with the control,IEC-6/TRPV1+ cells [4],not any significant difference
same,LDH release,"IEC-6/TRPV1- cells [5]; 0.1 μM, 12 h",0.509 ± 0.155 gprot⋅mL ^-1
same,LDH release,"IEC-6/TRPV1- cells [5]; 0.1 μM, 24 h",0.537 ± 0.019 gprot⋅mL ^-1
same,"accumulation of CAP, co-incubation",IEC-6/TRPV1- cells [6],did not change
